{
  "source": "patent US7622128B2",
  "about": "“Porphyromonas gingivalis 1435/1449 LPS as an immune modulator” (priority 2005, dated 2009)",
  "test_system": "mouse bone marrow cells",
  "experiment": "Activation of bone marrow cells from TLR knockout mice (intracellular TNF-α staining, FACS)",
  "type": "cell-based",
  "details": "TLR2−/−, TLR4−/− and TLR2/4−/− cells",
  "experimental": "The ability of this P. gingivalis LPS preparation to activate mouse bone marrow cells obtained from TLR2^−/−, TLR4^−/−, and TLR2/4^−/− knockout mice was examined to determine if endogenous TLR2 and TLR4 were utilized. Activation was determined by intracellular TNF-α staining and fluorescence-activated cell sorter analysis.",
  "data": [
    {"substance": "Pam3CSK4", "values": [
      {"measurement": "TLR usage in bone marrow cells of knockout mice", "result": "utilized their respective cognate TLR"}
    ]}
  ]
}
